Several values for one entry are separate records, joined by “and”; a condition that tells them apart may be missing. Identical values can stand only once. Like-named read-outs stand apart in the source and are kept apart here.

Consider 27 compounds from patent publication US20230138310A1 (priority 2020, published 2023).

Data set [1] has as its system 2019-nCov. The note with it: positive control, stated as existing value; read-out: EC50 of existing positive compound CQ against 2019-nCoV virus replication; cited from earlier work.
Data set [2] concerns the target T1, 3CL protease of 2019 Novel Coronavirus (2019-nCoV 3CLpro) (Severe acute respiratory syndrome coronavirus 2, UniProt P0DTD1).
T1 construct: the 3CL protease of 2019 Novel Coronavirus (2019-nCoV 3CL^pro)
Briefly: FRET inhibitory activity against 3CL protease of 2019 Novel Coronavirus. The class given is biochemical. The following applies: for inhibition at 1 µM: read-out: Inhibition rate (1 μM), 3CL protease of 2019 Novel Coronavirus.

Data set [3] relates to 2019-nCov. Briefly: Inhibitory activity against the replication of 2019-nCov (cytopathic effect, MTS). Format: cell-based. The following applies: for anti-virus activity against 2019-nCoV (in words): viral level, compared with positive control CQ; for EC50: Severe acute respiratory syndrome coronavirus 2, gradient concentrations, CQ as positive control, read-out: EC50 against 2019-nCoV virus replication. For orientation: Damage to the host cells serves as the signal in cytopathic effect assays.

Data set [4] can be described thus: Half-toxic concentration (CC50) with CCK8 kit. The following applies: African green monkey, Vero E6 cells, in duplicate. The class given is cell-based. The procedure: In this example, the half-toxic concentrations (CC50) of some compounds of the present invention to Vero E6 cells were determined with CCK8 kit in duplicate.
On the technique in general: Formazan colour is commonly taken as a measure of viable cells.

The mark [5] stands for this setting: FRET, tables 1A/1B, read-out: IC50 (nM) of SARS-CoV-2 3 CL protease.
[6] abbreviates: read-out: IC50 against 2019-nCoV 3CL protease.

What is called EC50 is the concentration at which the effect is half-maximal. `CCN(CC)CCCC(C)Nc1ccnc2cc(Cl)ccc12` (stereo not shown) [CQ]: in the data set with 2019-nCov [1], the concentration for a half-maximal effect (EC50) was 1130 nM.

For orientation: IC50 means the midpoint of a concentration-inhibition curve. Usually inhibition stands for the change of the read-out against control, counted positive when it falls. With `CC(C)[C@H](NC(=O)c1cc2ccccc2[nH]1)C(=O)N[C@@H](CC1CCCCC1)C(=O)N[C@H](C=O)C[C@@H]1CCNC1=O` [Compound 5, N-{(S)-3-methyl-1-carbonyl-1-{{(S)-1-carbonyl-1-{{(S)-1-carbonyl-3-[(S)-2-carbonylpyrrolidin-3-yl]propan-2-yl}amino}-3-cyclohexylpropan-2-yl}amino}butan-2-yl}indole-2-carboxamide], the half-maximal inhibitory concentration (IC50) in data set [2] (setting [5]) was 33.6 ± 3.45 nM; in data set [2] (setting [6]), < 100 nM. In data set [2] (compound at 1 μM), the inhibition at 1 µM stood at 95.7%.

Take `Cc1cc(C(=O)N[C@H](C(=O)N[C@@H](CC2CCCCC2)C(=O)N[C@H](C=O)C[C@@H]2CCNC2=O)C(C)C)no1` [Compound 6, 5-Methyl-N-{(S)-3-methyl-1-carbonyl-1-{{(S)-1-carbonyl-1-{{(S)-1-carbonyl-3-[(S)-2-carbonylpyrrolidin-3-yl]propan-2-yl}amino}-3-cyclohexylpropan-2-yl}amino}butan-2-yl}isoxazole-3-carboxamide]: the IC50 in data set [2] (setting [5]) is 48.5 ± 3.17 nM; in data set [2] (setting [6]), < 100 nM. The inhibition at 1 µM in data set [2] (compound at 1 μM) was determined as 95.8%.

As to `CC(C)[C@H](NC(=O)c1cc2ccccc2[nH]1)C(=O)N[C@@H](Cc1ccccc1)C(=O)N[C@H](C=O)C[C@@H]1CCNC1=O` [Compound 9, N-{(S)-3-methyl-1-carbonyl-1-{{(S)-1-carbonyl-1-{{(S)-1-carbonyl-3-[(S)-2-carbonylpyrrolidin-3-yl]propan-2-yl}amino}-3-phenylpropan-2-yl}amino}butan-2-yl}indole-2-carboxamide], the IC50 in data set [2] (setting [5]) was 68.1 ± 12.5 nM; in data set [2] (setting [6]), < 100 nM. Besides, in data set [2] (compound at 1 μM), the inhibition at 1 µM turned out to be 95.8%.

As for `CC(C)[C@H](NC(=O)c1cc2ccccc2o1)C(=O)N[C@@H](Cc1ccccc1)C(=O)N[C@H](C=O)C[C@@H]1CCNC1=O` [Compound 10, N-{(S)-3-methyl-1-carbonyl-1-{{(S)-1-carbonyl-1-{{(S)-1-carbonyl-3-[(S)-2-carbonylpyrrolidin-3-yl]propan-2-yl}amino}-3-phenylpropan-2-yl}amino}butan-2-yl}benzofuran-2-carboxamide], the IC50 in data set [2] (setting [5]) was 67.5 ± 13.9 nM; in data set [2] (setting [6]), < 100 nM. The inhibition at 1 µM in data set [2] (compound at 1 μM) came out at 88.2%.

On to `CC(C)[C@H](NC(=O)c1ccc2ccccc2n1)C(=O)N[C@@H](Cc1ccccc1)C(=O)N[C@H](C=O)C[C@@H]1CCNC1=O` [Compound 11, N-{(S)-3-methyl-1-carbonyl-1-{{(S)-1-carbonyl-1-{{(S)-1-carbonyl-3-[(S)-2-carbonylpyrrolidin-3-yl]propan-2-yl}amino}-3-phenylpropan-2-yl}amino}butan-2-yl}quinoline-2-carboxamide], for which, in data set [2] (setting [5]), the IC50 came out at 179 ± 29.4 nM. The inhibition at 1 µM in data set [2] (compound at 1 μM) turned out to be 89.7%.

Turning to `O=C[C@H](C[C@@H]1CCNC1=O)NC(=O)[C@H](Cc1ccc(F)c(F)c1)NC(=O)c1cc2ccccc2[nH]1` [Compound 12], the concentration for half-maximal inhibition (IC50) in data set [2] (setting [5]) is 87 ± 8 nM; in data set [2] (setting [6]), < 100 nM. The inhibition at 1 µM in data set [2] (compound at 1 μM) was determined as 103%.

One may read the CC50 as the concentration at which the toxic effect on the cells reaches its halfway point. The low end stands for greater toxicity to the cells, the high end for lower toxicity to the cells. With `CC(C)[C@H](NC(=O)c1ccc2ccccc2n1)C(=O)N[C@@H](CC1CCCCC1)C(=O)N[C@H](C=O)C[C@@H]1CCNC1=O` [Compound 16, N-{(S)-3-methyl-1-carbonyl-1-{{(S)-1-carbonyl-1-{{(S)-1-carbonyl-3-[(S)-2-carbonylpyrrolidin-3-yl]propan-2-yl}amino}-3-cyclohexylpropan-2-yl}amino}butan-2-yl}quinoline-2-carboxamide], the half-maximal inhibitory concentration (IC50) was 74 nM in data set [2] (setting [5]); < 100 nM and 73.5 nM in data set [2] (setting [6]). The inhibition at 1 µM in data set [2] (compound at 1 μM) is 89.1%. For the same compound, the “anti-virus activity against 2019-nCoV (in words)” value (from here on “anti-virus activity”) in the data set on 2019-nCov [3] is reported as “excellent anti-virus activity”. Moreover, in data set [4], the CC50 is > 100000 nM.

As to `CC(C)[C@H](NC(=O)c1cc2ccccc2o1)C(=O)N[C@@H](CC1CCCCC1)C(=O)N[C@H](C=O)C[C@@H]1CCNC1=O` [Compound 17, N-{(S)-3-methyl-1-carbonyl-1-{{(S)-1-carbonyl-1-{{(S)-1-carbonyl-3-[(S)-2-carbonylpyrrolidin-3-yl]propan-2-yl}amino}-3-cyclohexylpropan-2-yl}amino}butan-2-yl}benzofuran-2-carboxamide], the IC50 is 61 ± 12.5 nM in data set [2] (setting [5]) and < 100 nM in data set [2] (setting [6]). For the same compound, in data set [2] (compound at 1 μM), the inhibition at 1 µM was 106%.

In the case of `CC(C)[C@H](NC(=O)c1cc2cccc(Br)c2o1)C(=O)N[C@@H](CC1CCCCC1)C(=O)N[C@H](C=O)C[C@@H]1CCNC1=O` [Compound 18, 7-Bromo-N-{(S)-3-methyl-1-carbonyl-1-{{(S)-1-carbonyl-1-{{(S)-1-carbonyl-3-[(S)-2-carbonylpyrrolidin-3-yl]propan-2-yl}amino}-3-cyclohexylpropan-2-yl}amino}butan-2-yl}benzofuran-2-carboxamide], in data set [2] (setting [5]), the IC50 was 238 ± 18.7 nM. Further, in data set [2] (compound at 1 μM), the inhibition at 1 µM came out at 97.8%.

In the case of `Cc1cc2ccccc2nc1C(=O)N[C@H](C(=O)N[C@@H](CC1CCCCC1)C(=O)N[C@H](C=O)C[C@@H]1CCNC1=O)C(C)C` [Compound 19, 3-Methyl-N-{(S)-3-methyl-1-carbonyl-1-{{(S)-1-carbonyl-1-{{(S)-1-carbonyl-3-[(S)-2-carbonylpyrrolidin-3-yl]propan-2-yl}amino}-3-cyclohexylpropan-2-yl}amino}butan-2-yl}quinoline-2-carboxamide], the figures for the 50% inhibitory concentration (IC50) in data set [2] (setting [5]) and in data set [2] (setting [6]) were 62.7 ± 8.97 nM and < 100 nM, respectively. In data set [2] (compound at 1 μM), the inhibition at 1 µM stood at 98.3%.

`CC(C)[C@H](NC(=O)c1cc2cc(Cl)ccc2o1)C(=O)N[C@@H](CC1CCCCC1)C(=O)N[C@H](C=O)C[C@@H]1CCNC1=O` [Compound 20, 5-Chloro-N-{(S)-3-methyl-1-carbonyl-1-{{(S)-1-carbonyl-1-{{(S)-1-carbonyl-3-[(S)-2-carbonylpyrrolidin-3-yl]propan-2-yl}amino}-3-cyclohexylpropan-2-yl}amino}butan-2-yl}benzofuran-2-carboxamide]: the IC50 in data set [2] (setting [5]) stood at 150 ± 9.55 nM. Moreover, in data set [2] (compound at 1 μM), the inhibition at 1 µM was 101%.

Regarding `CC(C)[C@H](NC(=O)c1cc2ccccc2s1)C(=O)N[C@@H](CC1CCCCC1)C(=O)N[C@H](C=O)C[C@@H]1CCNC1=O` [Compound 24], the half-inhibitory concentration (IC50) in data set [2] (setting [5]) came out at 132 ± 14.7 nM. The inhibition at 1 µM in data set [2] (compound at 1 μM) is 93.3%.

Regarding `CC(C)[C@H](NC(=O)c1cc2ccccc2[nH]1)C(=O)N[C@@H](CC1CCC(F)C(F)C1)C(=O)N[C@H](C=O)C[C@@H]1CCNC1=O` (stereo partly shown) [Compound 35], the inhibition at 1 µM in data set [2] came out at 94.3%.

Turning to `O=C[C@H](C[C@@H]1CCNC1=O)NC(=O)[C@H](Cc1ccccc1)NC(=O)c1cc2cc(F)ccc2[nH]1` [Compound 45], the inhibition at 1 µM in data set [2] turned out to be 85.2%.

On to `O=C[C@H](C[C@@H]1CCNC1=O)NC(=O)[C@H](Cc1ccccc1)NC(=O)c1cc2ccc(F)cc2[nH]1` [Compound 46], for which the inhibition at 1 µM in data set [2] was determined as 89.3%.

For `O=C[C@H](C[C@@H]1CCNC1=O)NC(=O)[C@H](CC1CCCCC1)NC(=O)c1cc2c(Cl)cc(Cl)cc2[nH]1` [Compound 47], the inhibition at 1 µM in data set [2] was 90.4%.

In the case of `O=C[C@H](C[C@@H]1CCNC1=O)NC(=O)[C@H](CC1CCCCC1)NC(=O)c1cc2ccccc2[nH]1` [Compound 48], the EC50 in the data set on 2019-nCov [3] was 290 nM. The “anti-virus activity” value was “better than that of the positive control CQ” in the data set with 2019-nCov [3] and “excellent anti-virus activity” with 2019-nCov [3] (listed as 2234). Besides, in data set [4], the half-maximal cytotoxic concentration (CC50) is > 100000 nM.

Consider `Cn1c(C(=O)N[C@@H](CC2CCCCC2)C(=O)N[C@H](C=O)C[C@@H]2CCNC2=O)cc2ccccc21` [Compound 49], for which, in data set [2], the inhibition at 1 µM stood at 91.2%.

In the case of `COc1ccc2[nH]c(C(=O)N[C@@H](CC3CCCCC3)C(=O)N[C@H](C=O)C[C@@H]3CCNC3=O)cc2c1` [Compound 50], the inhibition at 1 µM in data set [2] is 89.1%.

Turning to `O=C[C@H](C[C@@H]1CCNC1=O)NC(=O)[C@H](CC1CCCCC1)NC(=O)c1cc2c(F)cccc2[nH]1` [Compound 51], the inhibition at 1 µM in data set [2] amounted to 84.6%.

As to `O=C[C@H](C[C@@H]1CCNC1=O)NC(=O)[C@H](CC1CCCCC1)NC(=O)c1cc2ccccc2s1` [Compound 56], the inhibition at 1 µM in data set [2] was 81.3%.

Consider `O=C[C@H](C[C@@H]1CCNC1=O)NC(=O)[C@H](CC1CCCCC1)NC(=O)c1nc2ccccc2[nH]1` [Compound 57], for which the inhibition at 1 µM in data set [2] came to 92.3%.

In the case of `O=C[C@H](C[C@@H]1CCNC1=O)NC(=O)[C@H](CC1CCCCC1)NC(=O)c1cnc2ccccc2n1` [Compound 59], the inhibition at 1 µM in data set [2] was 86.7%.

Turning to `O=C[C@H](C[C@@H]1CCNC1=O)NC(=O)[C@H](Cc1cccc(F)c1)NC(=O)c1cc2ccccc2[nH]1` [Compound 81], the half-maximal inhibitory concentration (IC50) in data set [2] (setting [6]) was < 100 nM. Also, in the data set on 2019-nCov [3], the EC50 was determined as 330 ± 90 nM and the “anti-virus activity” value is recorded as “better than that of the positive control CQ”. The “anti-virus activity” value with 2019-nCov [3] (listed as 2259) is recorded as “excellent anti-virus activity”. In data set [4], the CC50 was > 100000 nM.

In the case of `O=C[C@H](C[C@@H]1CCNC1=O)NC(=O)[C@H](Cc1ccc(F)cc1)NC(=O)c1cc2ccccc2[nH]1` [Compound 82], the concentration for half-maximal inhibition (IC50) in data set [2] (setting [5]) stood at 103 ± 13 nM. Besides, the inhibition at 1 µM in data set [2] (compound at 1 μM) came out at 101%.

Consider `O=C[C@H](C[C@@H]1CCNC1=O)NC(=O)[C@H](Cc1cccc(F)c1)NC(=O)c1cc2c(F)ccc(F)c2[nH]1` [Compound 83, 4,7-Difluoron-{(S)-1-carbonyl-1-{{(S)-1-carbonyl-3-[(S)-2-carbonylpyrrolidin-3-yl]propan-2-yl}amino}-3-3fluorophenylpropan-2-yl}-1H-indole-2-carboxamide], for which the IC50 in data set [2] (setting [5]) came out at 113 ± 9 nM. In addition, in data set [2] (compound at 1 μM), the inhibition at 1 µM is 97.8%.
